Measured values from patent US20220340650A1, “COMBINATION THERAPY WITH CGRP ANTAGONISTS” (Allergan Pharmaceuticals International Limited, priority 2019, published 2022).
Entries after “also recorded” stand apart in the source; their conditions may differ. One block for each molecule: values may come before it.

Tests used:
[1] = Phase 1b trial NCT04179474, plasma ubrogepant pharmacokinetics, erenumab arm (Part 1); assay type: in vivo, human; conditions: for half-life: read-out: t1/2, mean (converted)
Description: (§1) A two-part, multi-center, open-label, phase 1b trial (NCT04179474) in 40 adults (aged 18-50 years) diagnosed with migraine was conducted to evaluate the impact of erenumab or galcanezumab on the pharmacokinetics (PK), safety, and tolerability of ubrogepant in patients with migraine.
(§2) This open-label, multicenter trial enrolled adults diagnosed for greater than or equal to one year with migraine not on preventive treatment. Participants were assigned to an erenumab arm (Part 1) or a galcanezumab arm (Part 2). In each arm, participants received ubrogepant 100 mg on day 1 (without an antibody). On day 8, participants received the assigned monoclonal antibody: single subcutaneous (SC) erenumab 140 mg injection (Part 1) or galcanezumab 240 mg (2 SC 120 mg injections) (Part 2). Ubrogepant 100 mg was administered once daily on days 12-15. Participants were followed for 30 days.
(§3) Of 40 enrolled participants, 20 were included in part 1 (n=20 ubrogepant, n=19 erenumab, and n=19 co-administered ubrogepant and erenumab) and 20 were included in part 2 (n=20 ubrogepant, n=20 galcanezumab, and n=19 co-administered ubrogepant and galcanezumab).
(§4) PK parameters, derived from plasma ubrogepant concentrations in blood collected at prespecified time points over 24 hours post-dose on days 1 and 12, included area under the curve from time 0 to time t (AUC0-t) or to infinity (AUC0-∞); peak plasma concentration (Cmax), time to Cmax (Tmax); and apparent terminal half life (t1/2). Safety outcomes included incidence of adverse events (AEs; daily and through follow-up), and laboratory values, vital signs, and electrocardiogram (ECG) results (at prespecified timepoints pre- and post-dose). Log-transformed Cmax, AUC0-t, and […] , for ubrogepant with and without erenumab or galcanezumab with 90% CI were constructed.

[2] = Phase 1b trial NCT04179474, safety and tolerability (adverse events), erenumab arm (Part 1); design: species or system human; conditions: in vivo
Description: as §1, §2, §3, §4

[3] = Phase 1b trial NCT04179474, plasma ubrogepant pharmacokinetics, galcanezumab arm (Part 2); assay type: in vivo, human; conditions: for AUC(0-t): 100 mg
Description: as §1, §2
Of 40 enrolled participants, 20 were included in part 1 (n=20 ubrogepant, n=19 erenumab, and n=19 co-administered ubrogepant and erenumab) and 20 were included in part 2 (n=20 ubrogepant, n=20 galcanezumab, […]).
as §4

[4] = Phase 1b trial NCT04179474, safety and tolerability (adverse events), galcanezumab arm (Part 2); design: species or system human; conditions: in vivo
Description: as §1, §2, §3, §4

CYP enzymes = conditions: general statement, no test described; cited from earlier work
[5] = erenumab arm, ubrogepant 100 mg alone, day 1, n = 20
[6] = galcanezumab arm, ubrogepant 100 mg alone, day 1, n = 20

- CL/F, mean [1, 5]: 57.4 L/h
- t1/2, mean [1, 5]: 4.6 h
- AUC(0-t) ([1]; human, plasma, oral, erenumab arm, ubrogepant 100 mg alone, day 1, read-out: AUC0-t, geometric LSM): 1780 ng·h/mL
- AUC(0-inf) ([1]; human, plasma, oral, erenumab arm, ubrogepant 100 mg alone, day 1, read-out: AUC0-∞, geometric LSM): 1810 ng·h/mL
- Cmax ([1]; human, plasma, oral, erenumab arm, ubrogepant 100 mg alone, day 1, read-out: Cmax, geometric LSM): 431 ng/mL
- AUC(0-t) ([1]; human, plasma, other: extravascular administration, erenumab arm, ubrogepant 100 mg alone, day 1, n = 20, read-out: AUC0-t, mean): 1840 ng·h/mL
- AUC(0-inf) ([1]; human, plasma, other: extravascular administration, erenumab arm, ubrogepant 100 mg alone, day 1, n = 20, read-out: AUC0-∞, mean): 1880 ng·h/mL
- Cmax ([1]; human, plasma, other: extravascular administration, erenumab arm, ubrogepant 100 mg alone, day 1, n = 20, read-out: Cmax, mean): 459 ng/mL
- Vd/F ([1]; human, plasma, other: extravascular administration, erenumab arm, ubrogepant 100 mg alone, day 1, n = 20, read-out: VZ/F, mean): 437 L
- half-life ([1]; human, plasma, other: extravascular administration, erenumab arm, ubrogepant 100 mg alone, day 1, n = 20): 5.3 h
- half-life ([1]; human, plasma, erenumab arm, ubrogepant 100 mg day 12, after SC erenumab 140 mg on day 8, n = 19): 5.3 h
- Tmax ([1]; human, plasma, erenumab arm, ubrogepant 100 mg day 12, after SC erenumab 140 mg on day 8, n = 19, read-out: tmax, median): 1.5 h
- AUC0-∞, mean [3, 6]: 1732.2 ng·h/mL
- CL/F, mean [3, 6]: 72.9 L/h
- Cmax, mean [3, 6]: 415.3 ng/mL
- t1/2, mean [3, 6]: 4.6 h
- AUC(0-t) ([3]; human, plasma, oral, galcanezumab arm, ubrogepant 100 mg alone, day 1, n = 20, read-out: AUC0-t, mean): 1700 ng·h/mL
- AUC(0-t) ([3]; human, plasma, oral, galcanezumab arm, ubrogepant 100 mg alone, day 1, read-out: AUC0-t, geometric LSM): 1510 ng·h/mL
- Vd/F ([3]; human, plasma, oral, galcanezumab arm, ubrogepant 100 mg alone, day 1, n = 20, read-out: VZ/F, mean): 569 L
- AUC(0-inf) ([3]; human, plasma, oral, galcanezumab arm, ubrogepant 100 mg alone, day 1, read-out: AUC0-∞, geometric LSM): 1540 ng·h/mL
- Cmax ([3]; human, plasma, oral, galcanezumab arm, ubrogepant 100 mg alone, day 1, read-out: Cmax, geometric LSM): 359 ng/mL
- Tmax ([3]; human, plasma, oral, galcanezumab arm, ubrogepant 100 mg day 12, after SC galcanezumab 240 mg on day 8, n = 20): 1.5 h
- half-life ([3]; human, plasma, oral, galcanezumab arm, ubrogepant 100 mg day 12, after SC galcanezumab 240 mg on day 8, n = 20, read-out: t1/2, mean (converted)): 5 h
- change in ubrogepant Cmax with galcanezumab coadministration ([3]; vs ubrogepant alone): unchanged
- increase in ubrogepant AUC0-t with galcanezumab coadministration ([3]; vs ubrogepant alone): 5%
- increase in ubrogepant AUC0-∞ with galcanezumab coadministration ([3]; vs ubrogepant alone): 5%
Molecule: C[C@@H]1[C@H](c2ccccc2)C[C@H](NC(=O)c2cnc3c(c2)C[C@@]2(C3)C(=O)Nc3ncccc32)C(=O)N1CC(F)(F)F [Ubrogepant, ubrogepant]
- change in ubrogepant PK (Cmax, AUC0-t, AUC0-∞) after coadministration with erenumab versus alone ([1]; ubrogepant 100 mg, erenumab 140 mg SC): no significant change; also recorded: minimally elevated; also recorded: unchanged
- Abdominal Pain, participants ([2]; human): 0 participants
- Constipation, participants ([2]; human): 0 participants
- Flatulence, participants ([2]; human): 0 participants
- Headache, participants ([2]; human): 1 participants
- Headache, participants (%) ([2]; human): (5.0) %
- Nasopharyngitis, participants ([2]; human): 1 participants
- Nasopharyngitis, participants (%) ([2]; human): (5.0) %
- Nausea, participants ([2]; human): 0 participants
- Somnolence, participants ([2]; human): 1 participants
- Somnolence, participants (%) ([2]; human): (5.0) %
- TEAEs, participants (%) ([2]; human): (35.0) %
- Treatment Related AEs, participants (%) ([2]; human): (10.0) %
- Upper Abdominal Pain, participants ([2]; human): 0 participants
- safety concerns on co-administration [2]: no safety concerns were identified
- change in ubrogepant PK (Cmax, AUC0-t, AUC0-28) after coadministration with galcanezumab versus alone ([3]; ubrogepant 100 mg, galcanezumab 240 mg SC): no significant change; also recorded: unchanged
- Abdominal Discomfort, participants ([4]; human): 0 participants
- Dizziness, participants ([4]; human): 0 participants
- Headache, participants ([4]; human): 0 participants
- Hiccups, participants ([4]; human): 0 participants
- TEAEs, participants (%) ([4]; human): (10.0) %
- Upper Abdominal Pain, participants ([4]; human): 0 participants
- safety concerns on co-administration [4]: no safety concerns were identified

B1: galcanezumab (antibody, chains of the INN, looked up, V domains shown)
VH: QVQLVQSGAEVKKPGSSVKVSCKASGYTFGNYWMQWVRQAPGQGLEWMGAIYEGTGKTVYIQKFADRVTITADKSTSTAYMELSSLRSEDTAVYYCARLSDYVSGFGYWGQGTTVTVSS
VL: DIQMTQSPSSLSASVGDRVTITCRASKDISKYLNWYQQKPGKAPKLLIYYTSGYHSGVPSRFSGSGSGTDFTLTISSLQPEDFATYYCQQGDALPPTFGGGTKVEIK
notes: long-acting CGRP antagonist antibody that targets the CGRP ligand
- metabolism by CYP enzymes (CYP enzymes): not metabolized by CYP enzymes
- Abdominal Discomfort, participants [4]: 0 participants
- Dizziness, participants [4]: 0 participants
- Headache, participants [4]: 3 participants
- Headache, participants (%) [4]: (15.0) %
- Hiccups, participants [4]: 1 participants
- Hiccups, participants (%) [4]: (5.0) %
- TEAEs, participants (%) [4]: (15.0) %
- Treatment-related AEs, participants (%) [4]: (15.0) %
- Upper Abdominal Pain, participants [4]: 0 participants

B2: erenumab (antibody, chains of the INN, looked up, V domains shown)
VH: QVQLVESGGGVVQPGRSLRLSCAASGFTFSSFGMHWVRQAPGKGLEWVAVISFDGSIKYSVDSVKGRFTISRDNSKNTLFLQMNSLRAEDTAVYYCARDRLNYYDSSGYYHYKYYGMAVWGQGTTVTVSS
VL: QSVLTQPPSVSAAPGQKVTISCSGSSSNIGNNYVSWYQQLPGTAPKLLIYDNNKRPSGIPDRFSGSKSGTSTTLGITGLQTGDEADYYCGTWDSRLSAVVFGGGTKLTVL
- Abdominal Pain, participants [2]: 0 participants
- Constipation, participants [2]: 0 participants
- Flatulence, participants [2]: 1 participants
- Flatulence, participants (%) [2]: (5.3) %
- Headache, participants [2]: 6 participants
- Headache, participants (%) [2]: (31.6) %
- Nasopharyngitis, participants [2]: 0 participants
- Nausea, participants [2]: 0 participants
- Somnolence, participants [2]: 0 participants
- TEAEs, participants (%) [2]: (42.1) %
- Treatment Related AEs, participants (%) [2]: (36.8) %
- Upper Abdominal Pain, participants [2]: 0 participants
- metabolism by CYP enzymes (CYP enzymes): not metabolized by CYP enzymes
